Where two headings read alike, the source gives them in different places.
Tests used:
CYP2B6 = target: T1, CYP2B6 (Homo sapiens, UniProt P20813); test: P450-Glo luminescence inhibition assay; type: biochemical
T1 construct: native enzyme in pooled human liver microsomes (200 donors, male and female; Sekisui XenoTech), isoform-selective P450-Glo CYP2B6 kit
T1 sequence (P20813 1-491): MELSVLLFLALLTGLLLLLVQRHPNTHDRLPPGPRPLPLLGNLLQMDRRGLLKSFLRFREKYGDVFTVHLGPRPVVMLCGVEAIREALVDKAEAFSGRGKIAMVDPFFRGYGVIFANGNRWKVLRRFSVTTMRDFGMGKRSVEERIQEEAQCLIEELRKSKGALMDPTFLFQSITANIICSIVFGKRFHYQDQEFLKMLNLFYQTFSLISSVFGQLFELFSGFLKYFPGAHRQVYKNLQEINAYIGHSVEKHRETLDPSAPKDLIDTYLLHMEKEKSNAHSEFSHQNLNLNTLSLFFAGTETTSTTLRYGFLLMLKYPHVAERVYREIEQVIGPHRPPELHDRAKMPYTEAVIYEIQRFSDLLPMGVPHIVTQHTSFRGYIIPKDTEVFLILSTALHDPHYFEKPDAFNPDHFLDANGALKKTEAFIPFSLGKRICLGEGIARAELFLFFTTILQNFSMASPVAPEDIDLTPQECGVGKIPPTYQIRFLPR

CYP3A4 = target: T2, CYP3A4 (Homo sapiens, UniProt P08684); test: P450-Glo luminescence inhibition assay; type: biochemical
T2 construct: native enzyme in pooled human liver microsomes (200 donors, male and female; Sekisui XenoTech), isoform-selective P450-Glo CYP3A4 kit
T2 sequence (P08684 2-503): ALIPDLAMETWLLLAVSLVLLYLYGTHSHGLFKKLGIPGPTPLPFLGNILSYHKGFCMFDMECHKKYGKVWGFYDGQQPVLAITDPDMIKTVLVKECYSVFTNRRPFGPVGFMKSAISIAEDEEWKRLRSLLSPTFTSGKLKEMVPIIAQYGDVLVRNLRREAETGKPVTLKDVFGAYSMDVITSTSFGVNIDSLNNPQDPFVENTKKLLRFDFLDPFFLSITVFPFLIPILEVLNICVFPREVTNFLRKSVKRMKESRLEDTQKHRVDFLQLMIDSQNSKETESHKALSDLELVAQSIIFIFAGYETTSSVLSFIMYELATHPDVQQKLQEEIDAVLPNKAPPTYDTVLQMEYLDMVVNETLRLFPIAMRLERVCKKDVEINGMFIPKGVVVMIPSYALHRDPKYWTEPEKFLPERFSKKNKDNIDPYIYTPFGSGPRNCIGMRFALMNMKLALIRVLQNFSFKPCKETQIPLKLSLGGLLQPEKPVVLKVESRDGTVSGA

C=C1C(=O)O[C@@]23[C@H]1CC[C@@H](C)[C@@H]2CC[C@@]1(C)O[C@@H]31 [Arteannuin B]
IC50 (CYP2B6): 9.36 µM
IC50 (CYP3A4; read-out: CYP3A4 IC50): 12.3 µM

C=C(C(=O)O)[C@@H]1CC[C@@H](C)[C@@H]2CCC(C)=C[C@@H]21 [Artemisinic Acid]
IC50 (CYP2B6): 123 µM
IC50 (CYP3A4; read-out: CYP3A4 IC50): 240 µM

CC1(C)[C@@H]2CC[C@@]1(C)C(=O)C2 [Camphor (+)]
IC50 (CYP2B6): 119 µM
IC50 (CYP3A4; read-out: CYP3A4 IC50): > 600 µM

CC1(C)[C@H]2CC[C@]1(C)C(=O)C2 [Camphor (-)]
IC50 (CYP2B6): 142 µM
IC50 (CYP3A4; read-out: CYP3A4 IC50): > 600 µM

O=C(/C=C/c1ccc(O)c(O)c1)O[C@@H]1C[C@](O)(C(=O)O)C[C@@H](O)[C@H]1O [Chlorogenic Acid]
IC50 (CYP2B6): > 600 µM
IC50 (CYP3A4; read-out: CYP2B6 IC50): > 600 µM

COc1cc(-c2oc3cc(OC)c(OC)c(O)c3c(=O)c2OC)ccc1O [Chrysosplenetin]
IC50 (CYP2B6): 74.7 µM
IC50 (CYP3A4; read-out: CYP3A4 IC50): 21.7 µM

COc1cc2oc(-c3ccc(O)c(O)c3)c(OC)c(=O)c2c(O)c1OC [Chrysosplenol-D]
IC50 (CYP2B6): 52.1 µM
IC50 (CYP3A4; read-out: CYP3A4 IC50): 23 µM

C[C@@H]1CC[C@H]2[C@@H](C)C(=O)O[C@@H]3O[C@@]4(C)CC[C@@H]1[C@]32O4 [Deoxyartemisinin]
IC50 (CYP2B6): 111 µM
IC50 (CYP3A4; read-out: CYP3A4 IC50): > 600 µM

O=c1c(O)c(-c2ccc(O)cc2)oc2cc(O)cc(O)c12 [Kaempferol]
IC50 (CYP2B6): > 600 µM
IC50 (CYP3A4; read-out: CYP3A4 IC50): 33.8 µM

O=c1c(O)c(-c2ccc(O)c(O)c2)oc2cc(O)cc(O)c12 [Quercetin]
IC50 (CYP2B6): 19.9 µM
IC50 (CYP3A4; read-out: CYP3A4 IC50): 4.59 µM

COc1cc2ccc(=O)oc2cc1O [Scopoletin]
IC50 (CYP2B6): > 600 µM

— article PMC7072484 (Biomolecules, 2020)
